{
  "source": "patent US20200376011A1",
  "about": "“COMPOSITION FOR TREATING CANCER INCLUDING ALGINATE OLIGOSACCHARIDE AS AN ACTIVE INGREDIENT” (BIO3S, INC, priority 2019, published 2020)",
  "tested_on": "infiltration of NK cells into ECM (collagen) toward cancer cells (A549)",
  "test": "NK cell infiltration in tumor microenvironment (TME) simulating organ-on-a-chip model",
  "assay_type": "cell-based",
  "details": "co-treatment with NK cells and M5 versus NK cells alone; 48 hours; high-concentration collagen cell barrier model",
  "from_the_text": "The efficacy as a cancer adjuvant was examined by administering tumor microenvironment (TME) simulating models (organ-on-a-chips) with NK cells and the indicator component M5 for the active ingredient of the present disclosure.\nNK cells, known to have anti-cancer efficacy as immune cells, were examined for a change in infiltration ability into tumor tissues according to whether or not NK cells were co-administered with M5. The qualification criterion was the infiltration ability of immune cells into ECM, which was determined by the infiltration distance of NK cells and whether or not the number of infiltrating cells was increased. Collagen was selected as a representative type of ECM. The cells were seeded into the chips under a […] collagen condition, and after 6 hours and 48 hours, the infiltration of NK cells toward the medium and cancer cell (A549) channels was observed.\nA comparison was made for the infiltration ability of NK cells between the treatment with NK cells alone and the co-treatment with NK cells and M5, for 48 hours in high-concentration collagen cell barrier models.",
  "data": [
    {"substance": "penta-mannuronic acid sodium salt [M5]", "values": [
      {"measurement": "infiltration ability of NK cells into cancer cells", "result": "enhanced"}
    ]}
  ]
}
